Test results published in PubChem BioAssay (NCI).
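Grown in 96-well plates, cells were treated for 48 hours with each compound at five concentrations. Insufficient inhibition: endpoint recorded as highest concentration tested. Definition used: TGI = concentration required for complete inhibition of growth.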

Key:
Assay in all cases: DTP human tumour cell line panel, 48 h
A498 renal = system: A498 renal
ACHN renal = system: ACHN renal
BT-549 breast = system: BT-549 breast
HCC-2998 colon = system: HCC-2998 colon
HCT-116 colon = system: HCT-116 colon
HOP-62 NSCLC = system: HOP-62 NSCLC
MOLT-4 leukemia = system: MOLT-4 leukemia
SN12C renal = system: SN12C renal
SR leukemia = system: SR leukemia
U251 CNS = system: U251 CNS

SMILES: O=C1C(Cl)C(c2cc3cc(Br)ccc3nc2Cl)N1c1c(Cl)cccc1Cl (configuration not stated)
- TGI (A498 renal): > 25 µM
- TGI (ACHN renal): > 25 µM
- TGI (BT-549 breast): > 25 µM
- TGI (HCC-2998 colon): > 25 µM
- TGI (HCT-116 colon): > 25 µM
- TGI (HOP-62 NSCLC): > 25 µM
- TGI (MOLT-4 leukemia): 11.4 µM
- TGI (SN12C renal): > 25 µM
- TGI (SR leukemia): 10.7 µM

SMILES: [O-][n+]1c(-c2ccccc2)c2nc3ccccc3nc2c2ccccc21
- TGI (A498 renal): > 100 µM
- TGI (ACHN renal): > 100 µM
- TGI (HCC-2998 colon): > 100 µM
- TGI (HCT-116 colon): > 100 µM
- TGI (HOP-62 NSCLC): > 100 µM
- TGI (MOLT-4 leukemia): > 100 µM
- TGI (SN12C renal): > 100 µM
- TGI (U251 CNS): > 100 µM

SMILES: Cc1cc(C)n(CN(Cn2nc(C)cc2C)c2ccccc2)n1
- TGI (A498 renal): > 100 µM
- TGI (ACHN renal): 51.5 µM
- TGI (BT-549 breast): 69.2 µM
- TGI (HCT-116 colon): 41.4 µM
- TGI (HOP-62 NSCLC): 66.8 µM
- TGI (MOLT-4 leukemia): 28.3 µM
- TGI (SN12C renal): 98.7 µM
- TGI (SR leukemia): 14.9 µM
- TGI (U251 CNS): 44 µM

SMILES: Cc1ccc(-c2cc(-c3c(C)nn(C)c(=O)c3N)[nH]n2)cc1
- TGI (A498 renal): > 100 µM
- TGI (ACHN renal): > 100 µM
- TGI (HCC-2998 colon): > 100 µM
- TGI (HCT-116 colon): > 100 µM
- TGI (MOLT-4 leukemia): > 100 µM
- TGI (SN12C renal): > 100 µM
- TGI (SR leukemia): > 100 µM
- TGI (U251 CNS): > 100 µM

SMILES: CCCCCCCCCc1c(O)c(O)c(CCCCCCCCC)c(CCCCCCCCC)c1CCCCCCCCC
- TGI (A498 renal): > 100 µM
- TGI (ACHN renal): > 100 µM
- TGI (BT-549 breast): > 100 µM
- TGI (HCC-2998 colon): > 100 µM
- TGI (HCT-116 colon): > 100 µM
- TGI (HOP-62 NSCLC): > 100 µM
- TGI (MOLT-4 leukemia): > 100 µM
- TGI (SN12C renal): > 100 µM
- TGI (U251 CNS): > 100 µM

SMILES: CN(C)c1ccc(C(=NN)c2ccc(N(C)C)cc2)cc1
- TGI (A498 renal): > 81.7 µM
- TGI (ACHN renal): > 78.7 µM
- TGI (BT-549 breast): > 100 µM
- TGI (HCC-2998 colon): 3.73 µM
- TGI (HCT-116 colon): > 100 µM
- TGI (HOP-62 NSCLC): > 57.6 µM
- TGI (SN12C renal): > 100 µM
- TGI (SR leukemia): > 100 µM
- TGI (U251 CNS): 9.21 µM
